Like-named read-outs stand apart in the source and are kept apart here.
Molecular target: CarD·RNAP binding (CarD association with RPo) (Mycobacterium tuberculosis, UniProt P9WGY7+P9WGY9+P9WJG3, D68C)
[1] = read-out: CarD-BODIPY-FL assay CCG sample IC50
[2] = read-out: CarD-BODIPY-FL assay Powder sample IC50

Compound	IC50 [1]	IC50 [2]
COC(=O)c1noc(C)c1C(=O)/C=C/N1CCCCC1 [CCG-42210]	106 µM	85 µM
CC(=O)Nc1ccc(NC(=O)c2ccccc2C(=O)O)cn1 [CCG-52160]	37 µM	680 µM
O=C(NC(=O)N1CCCC1)C1CCN(c2cnc3ccccc3n2)CC1 [CCG-52363]	60 µM	200 µM
CC(=O)Nc1ccc(NC(=O)c2nccnc2C(=O)O)cn1 [CCG-52573]	78 µM	160 µM
CCC(=O)Nc1cccc2c(NC(=O)CC)cccc12 [CCG-53654]	15 µM	188 µM
Cc1cc2c(NC(=O)Nc3ccccc3)cccc2nn1 [CCG-237488]	25 µM	
CC(=O)c1sc2nsc(SCCN3CCCC3)c2c1N [CCG-239496]	90 µM	47 µM
CN(C)c1ncnc(Oc2ccc(Cl)cc2)c1[N+](=O)[O-] [CCG-247600]	250 µM	132 µM
O=C(O)c1ccc(-c2nc3ccc(-c4ccc5nc(-c6ccc(C(=O)O)cc6)[nH]c5c4)cc3[nH]2)cc1 [CCG-249580]	263 µM	202 µM
NC(=O)c1ccc(CC(=O)c2ccc(Cl)cc2)cc1 [CCG-251660]	106 µM	37 µM
